Data taken from patent US20250059205A1, “Heterocyclic Compounds and Methods of Use” (AMGEN INC., priority 2021, published 2025).
pIC50: −log10 of the molar value.

Legend:
[1] = biological target: His-tagged KRAS G12D protein (Homo sapiens, UniProt P01116, G12D); experiment: KRAS G12D TR-FRET Assay; type: binding
[2] = biological target: GDP-bound KRAS protein (aa 1-169), containing both G12D and C118A amino acid substitutions (Homo sapiens, UniProt P01116, C118A/G12D); experiment: KRAS G12D Coupled Nucleotide Exchange Assay; type: biochemical; conditions: 2 h compound pre-incubation
Chain of GDP-bound KRAS protein (aa 1-169), containing both G12D and C118A amino acid substitutions (P01116 1-169 isoform P01116-2 G12D/C118A): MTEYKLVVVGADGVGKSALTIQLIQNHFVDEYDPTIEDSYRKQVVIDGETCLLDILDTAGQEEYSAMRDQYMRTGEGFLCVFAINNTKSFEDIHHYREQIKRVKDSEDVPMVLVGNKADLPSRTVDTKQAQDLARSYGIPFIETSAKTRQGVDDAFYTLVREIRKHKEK
Experimental: Following compound pre-incubation, purified SOS protein (aa 564-1049) and GTP (Roche 10106399001) were added to the assay wells and incubated for an additional 30 min. […] The assay plates were then read on a PerkinElmer EnVision Multilabel Reader, using AlphaScreen® technology, and data were analyzed using a 4-parameter logistic model to calculate IC50 values.

[3] = system: Phosphorylation of ERK1/2 in A-427 cells; experiment: Phospho-ERK1/2 MSD Assay (A-427 cells); type: cell-based; conditions: Homo sapiens, A-427, 2 h, 2 h treatment, read-out: p-ERK (A427 cells) IC50
Experimental: A-427 (ATCC® HTB-53™) cells were cultured in RPMI 1640 Medium (ThermoFisher Scientific 11875093) containing 10% fetal bovine serum (ThermoFisher Scientific 16000044) and 1× penicillin-streptomycin-glutamine (ThermoFisher Scientific 10378016). Sixteen hours prior to compound treatment, A-427 cells were seeded in 96-well cell culture plates at a density of 25,000 cells/well and incubated at 37° C., 5% CO2. A compound dose-response titration was diluted in growth media, added to appropriate wells of a cell culture plate, and then incubated at 37° C., 5% CO2 for 2 h. Following compound treatment, cells were washed with ice-cold Dulbecco's phosphate-buffered saline, no Ca^2+ or Mg^2+ (ThermoFisher Scientific 14190144), and then lysed in RIPA buffer (50 mM Tris-HCl pH 7.5, 1% Igepal, 0.5% sodium deoxycholate, 150 mM NaCl, and 0.5% sodium dodecyl sulfate) containing protease inhibitors (Roche 4693132001) and phosphatase inhibitors (Roche 4906837001). Phosphorylation of ERK1/2 in compound-treated lysates was assayed using Phospho-ERK1/2 Whole Cell Lysate kits (Meso Scale Discovery K151DWD) according to the manufacturer's protocol. Assay plates were read on a Meso Scale Discovery Sector Imager 6000, and data were analyzed using a 4-parameter logistic model to calculate IC50 values.

[4] = system: Phosphorylation of ERK1/2 in AsPC-1 cells; experiment: Phospho-ERK1/2 MSD Assay (AsPC-1 cells); type: cell-based; conditions: Homo sapiens, ASPC1, 2 h, 2 hours treatment, read-out: p-ERK (AsPC-1 cells) IC50
How it was run: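 Read-out: MSD electrochemiluminescent detection of phosphorylated ERK1/2 in whole-cell lysates, fitted to a 4-parameter logistic curve for IC50. Prior to lysis, AsPC-1 cells (25,000 per well) received a 2 h compound dose-response at 37 °C.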

Chain of His-tagged KRAS G12D protein (P01116 1-188 isoform P01116-2 G12D): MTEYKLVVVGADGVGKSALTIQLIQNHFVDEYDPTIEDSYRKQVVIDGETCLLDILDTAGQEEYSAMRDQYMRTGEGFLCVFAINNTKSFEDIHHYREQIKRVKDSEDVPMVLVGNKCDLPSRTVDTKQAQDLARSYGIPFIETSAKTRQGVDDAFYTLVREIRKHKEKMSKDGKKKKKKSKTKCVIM

Fc1cc2c(N3[C@@H]4CC[C@H]3CNC4)nc(OC[C@@]34CCCN3C[C@H](F)C4)nc2c(F)c1-c1cccc2cccc(Cl)c12 [Example 22, 4-((1R,5S)-3,8-diazabicyclo[3.2. 1]octan-8-yl)-7-(8-chloronaphthalen-1-yl)-6,8-difluoro-2-(((2R,7aS)-2-fluorotetrahydro-1H-pyrrolizin-7a(5H)-yl)methoxy) quinazoline]
pIC50 [1]: 7.77
Avg 2 h Coupled Exchange IC50 [2]: 14 nM
pIC50 [3]: 5.58
pIC50 [4]: 5.63

Cc1cccc2cccc(-c3c(F)cc4c(N5[C@@H]6CC[C@H]5CNC6)nc(OC[C@@]56CCCN5C[C@H](F)C6)nc4c3F)c12 [Example 23, 4-((1R,5S)-3,8-diazabicyclo[3.2. 1]octan-8-yl)-6,8-difluoro-2-(((2R,7aS)-2-fluorotetrahydro-1H-pyrrolizin-7a(5H)-yl)methoxy)-7-(8-methylnaphthalen-1-yl)quinazoline]
pIC50 [1]: 7.36
Avg 2 h Coupled Exchange IC50 [2]: 19 nM
pIC50 [3]: 4.99
pIC50 [4]: 5.59

Fc1c(-c2cccc3cccc(Cl)c23)ccc2c(N3[C@@H]4CC[C@H]3CNC4)nc(OC[C@@]34CCCN3C[C@H](F)C4)nc12 [Example 24, 4-((1R,5S)-3,8-diazabicyclo[3.2. 1]octan-8-yl)-7-(8-chloronaphthalen-1-yl)-8-fluoro-2-(((2R,7aS)-2-fluorotetrahydro-1H-pyrrolizin-7a(5H)-yl)methoxy) quinazoline]
pIC50 [1]: 7.51
Avg 2 h Coupled Exchange IC50 [2]: 16 nM
pIC50 [3]: 5.41
pIC50 [4]: 5.86

Oc1cc(-c2ccc3c(N4[C@@H]5CC[C@H]4CNC5)nc(OC[C@@]45CCCN4C[C@H](F)C5)nc3c2F)c2ncccc2c1 [Example 25, 8-(4-((1R,5S)-3,8-diazabicyclo[3.2. 1]octan-8-yl)-8-fluoro-2-(((2R,7aS)-2-fluorotetrahydro-1H-pyrrolizin-7a(5H)-yl)methoxy)quinazolin-7-yl)quinolin-6-ol]
pIC50 [1]: 7.24
Avg 2 h Coupled Exchange IC50 [2]: 17 nM
pIC50 [3]: 5.30
pIC50 [4]: 4.83

Nc1cc(-c2ccc3c(N4[C@@H]5CC[C@H]4CNC5)nc(OC[C@@]45CCCN4C[C@H](F)C5)nc3c2F)c2ccccc2c1 [Example 26, 4-(4-((1R,5S)-3,8-diazabicyclo[3.2. 1]octan-8-yl)-8-fluoro-2-(((2R,7aS)-2-fluorotetrahydro-1H-pyrrolizin-7a(5H)-yl)methoxy)quinazolin-7-yl)naphthalen-2-amine]
pIC50 [1]: 7.47
Avg 2 h Coupled Exchange IC50 [2]: 18 nM
pIC50 [3]: 5.95
pIC50 [4]: 6.16

Oc1cc(-c2c(F)cc3c(N4[C@@H]5CC[C@H]4CNC5)nc(OC[C@@]45CCCN4C[C@H](F)C5)nc3c2F)c2ncccc2c1 [Example 27, 8-(4-((1R,5S)-3,8-diazabicyclo[3.2. 1]octan-8-yl)-6,8-difluoro-2-(((2R,7aS)-2-fluorotetrahydro-1H-pyrrolizin-7a(5H)-yl)methoxy)quinazolin-7-yl)quinolin-6-ol]
pIC50 [1]: 7.33
Avg 2 h Coupled Exchange IC50 [2]: 21 nM
pIC50 [3]: 6.06
pIC50 [4]: 5.28

Cc1cccc2cccc(-c3ccc4c(N5[C@@H]6CC[C@H]5CNC6)nc(OC[C@@]56CCCN5C[C@H](F)C6)nc4c3F)c12 [Example 28, 4-((1R,5S)-3,8-diazabicyclo[3.2. 1]octan-8-yl)-8-fluoro-2-(((2R,7aS)-2-fluorotetrahydro-1H-pyrrolizin-7a(5H)-yl)methoxy)-7-(8-methylnaphthalen-1-yl)quinazoline]
pIC50 [1]: 7.05
Avg 2 h Coupled Exchange IC50 [2]: 44 nM
pIC50 [3]: < 5.00
pIC50 [4]: 5.44

Oc1cc(-c2ccc3c(N4[C@@H]5CC[C@H]4CNC5)nc(OC[C@@]45CCCN4C[C@H](F)C5)nc3c2F)c2cccnc2c1 [Example 29, 5-(4-((1R,5S)-3,8-diazabicyclo[3.2. 1]octan-8-yl)-8-fluoro-2-(((2R,7aS)-2-fluorotetrahydro-1H-pyrrolizin-7a(5H)-yl)methoxy)quinazolin-7-yl)quinolin-7-ol]
pIC50 [1]: 6.79
Avg 2 h Coupled Exchange IC50 [2]: 80 nM
pIC50 [3]: < 5.00
pIC50 [4]: 5.00

CN1C[C@H](F)C[C@H]1COc1nc(N2[C@@H]3CC[C@H]2CNC3)c2cc(F)c(-c3cc(O)cc4cccnc34)c(F)c2n1 [Example 30, 8-(4-((1R,5S)-3,8-diazabicyclo[3.2. 1]octan-8-yl)-6,8-difluoro-2-(((2S,4R)-4-fluoro-1-methylpyrrolidin-2-yl)methoxy)quinazolin-7-yl)quinolin-6-ol]
pIC50 [1]: 6.25
Avg 2 h Coupled Exchange IC50 [2]: 158 nM
pIC50 [3]: 4.75
pIC50 [4]: 4.67

Cc1c(-c2cc(O)cc3ccccc23)ccc2c(N3C[C@H]4CC[C@@H](C3)N4)nc(OC[C@@]34CCCN3C[C@H](F)C4)nc12 [Example 33, 4-(4-((1R,5S)-3,8-diazabicyclo[3.2. 1]octan-3-yl)-2-(((2R,7aS)-2-fluorotetrahydro-1H-pyrrolizin-7a(5H)-yl)methoxy)-8-methylquinazolin-7-yl)naphthalen-2-ol]
pIC50 [1]: 8.10
Avg 2 h Coupled Exchange IC50 [2]: 3 nM
pIC50 [3]: 6.54
pIC50 [4]: 6.29

Cc1c(-c2cc(O)cc3ccccc23)ccc2c(N3[C@@H]4CC[C@H]3CNC4)nc(OC[C@@]34CCCN3C[C@H](F)C4)nc12 [Example 34, 4-(4-((1R,5S)-3,8-diazabicyclo[3.2. 1]octan-8-yl)-2-(((2R,7aS)-2-fluorotetrahydro-1H-pyrrolizin-7a(5H)-yl)methoxy)-8-methylquinazolin-7-yl)naphthalen-2-ol]
pIC50 [1]: 7.33
Avg 2 h Coupled Exchange IC50 [2]: 22 nM
pIC50 [3]: 5.59
pIC50 [4]: 5.53

Oc1ccc(Cl)c(-c2ccc3c(N4C[C@H]5CC[C@@H](C4)N5)nc(OC[C@@]45CCCN4C[C@H](F)C5)nc3c2)c1F [Example 36, 3-(4-((1R,5S)-3,8-diazabicyclo[3.2. 1]octan-3-yl)-2-(((2R,7aS)-2-fluorotetrahydro-1H-pyrrolizin-7a(5H)-yl)methoxy)quinazolin-7-yl)-4-chloro-2-fluorophenol]
pIC50 [1]: 6.32
Avg 2 h Coupled Exchange IC50 [2]: 82 nM
pIC50 [3]: < 5.00
pIC50 [4]: < 5.00

Cc1cc2[nH]ncc2c(-c2ccc3c(N4[C@@H]5CC[C@H]4CNC5)nc(OC[C@@]45CCCN4C[C@H](F)C5)nc3c2)c1Cl [Example 37, 4-((1R,5S)-3,8-diazabicyclo[3.2. 1]octan-8-yl)-7-(5-chloro-6-methyl-1H-indazol-4-yl)-2-(((2R,7aS)-2-fluorotetrahydro-1H-pyrrolizin-7a(5H)-yl)methoxy) quinazoline]
pIC50 [1]: 6.71
Avg 2 h Coupled Exchange IC50 [2]: 73 nM
pIC50 [3]: < 5.00
pIC50 [4]: 5.17

Cc1c(Cl)cc2[nH]ncc2c1-c1ccc2c(N3[C@@H]4CC[C@H]3CNC4)nc(OC[C@@]34CCCN3C[C@H](F)C4)nc2c1 [Example 38, 4-((1R,5S)-3,8-diazabicyclo[3.2. 1]octan-8-yl)-7-(6-chloro-5-methyl-1H-indazol-4-yl)-2-(((2R,7aS)-2-fluorotetrahydro-1H-pyrrolizin-7a(5H)-yl)methoxy) quinazoline]
pIC50 [1]: 6.71
Avg 2 h Coupled Exchange IC50 [2]: 42 nM
pIC50 [3]: < 5.00
pIC50 [4]: 5.20

Cc1cc2[nH]ncc2c(-c2ccc3c(N4C[C@H]5CC[C@@H](C4)N5)nc(OC[C@@]45CCCN4C[C@H](F)C5)nc3c2)c1Cl [Example 39, 4-((1R,5S)-3,8-diazabicyclo[3.2. 1]octan-3-yl)-7-(5-chloro-6-methyl-1H-indazol-4-yl)-2-(((2R,7aS)-2-fluorotetrahydro-1H-pyrrolizin-7a(5H)-yl)methoxy) quinazoline]
pIC50 [1]: 7.70
Avg 2 h Coupled Exchange IC50 [2]: 9 nM
pIC50 [3]: 6.24
pIC50 [4]: 5.72

Cc1c(Cl)cc2[nH]ncc2c1-c1ccc2c(N3C[C@H]4CC[C@@H](C3)N4)nc(OC[C@@]34CCCN3C[C@H](F)C4)nc2c1 [Example 40, 4-((1R,5S)-3,8-diazabicyclo[3.2. 1]octan-3-yl)-7-(6-chloro-5-methyl-1H-indazol-4-yl)-2-(((2R,7aS)-2-fluorotetrahydro-1H-pyrrolizin-7a(5H)-yl)methoxy) quinazoline]
pIC50 [1]: 7.96
Avg 2 h Coupled Exchange IC50 [2]: 6 nM
pIC50 [3]: 6.16
pIC50 [4]: 5.62
